Reference: patent US10745703B2, “Compositions and methods for treating cancer” (CASE WESTERN RESERVE UNIVERSITY, priority 2009, dated 2020)
Entries after “also recorded” stand apart in the source; their conditions may differ. Where a SMILES comes first, the peptide text is derived from it. The star is where a group is joined. Decanoyl = CCCCCCCCCC(=O)*; Cbz = O=C(OCc1ccccc1)*; CH2Cl = ClC*

What was measured:
Type in all cases: cell-based, human
[1] = system: U-87 MG cells; assay: Scratch wound assay, U-87 MG cells
Procedure: U-87 MG cells were infected with control or PTPμ shRNA lentivirus. After three days, confluent monolayers of cells were scratched with a 20 μl pipette tip to induce a wound. The wounded edges were imaged using a Nikon (Tokyo, Japan) TE200 inverted microscope and Spot RT digital camera and image acquisition software (Diagnostic Instruments, Inc., Sterling Heights, Mich.) Images were collected with a 10× objective 0, 6, 24, and 48 hours after wounding. Images were quantitated using MetaMorph software (Molecular Devices, Downingtown, Pa.) by measuring the width of the wound at each time point. The difference between the width of the wound at the zero time point and the time point being analyzed was divided by two. This value reflects the distance migrated by the leading edge of one side of the wound during a given time interval. Replicates were averaged and plotted using Microsoft Excel. Error bars indicate standard error. Data were analyzed for statistical significance using an unpaired student's t-test. Rac1 inhibition studies were performed using a Rac1-specific inhibitor from Calbiochem (Gibbstown, N.J.) (J Biol Chem. 2005;280:37516-37525; Proc Natl Acad Sci USA. 2004;101:7618-7623). For morphological studies, the inhibitor was dissolved in water and added at a final concentration of 100 μM just prior to scratching the cells. Cells were analyzed after 6 hours. For migration studies, the inhibitor was dissolved in water and added at a final concentration of 50 μM just prior to scratching the cells. Cells were analyzed after 24 hours.

[2] = system: PTPμ; assay: Proteolytic processing of PTPμ in LN-229 cells treated with protease inhibitors (biotinylation, immunoprecipitation, immunoblot); details: for endogenous PTPμ PΔE and ICD fragments: parental LN-229 cells, immunoprecipitation SK-18, immunoblot SK-7; for PTPμ PΔE and ICD fragments: total lysates of LN-229 cells overexpressing PTPμ or PTPμ-GFP; for furin cleavage of PTPμ (full-length PTPμ at the cell surface, P-subunit formation): LN-229 cells, cell surface biotinylation, inhibitor 50 μM, 17-20 hours
Procedure: Cell lysates were prepared and immunoblotted using normalized samples of ˜20 μg protein detected with monoclonal antibodies recognizing the intracellular segment of PTPμ (SK-7 or SK-18) (Mol Cell Biochem 1993; 127-128: 131-41). An antibody against vinculin was from Sigma-Aldrich (St. Louis, Mo.). The GFP antibody JL-8 was from Clontech (Mountain View, Calif.).
Cell surface biotinylation was performed using a Sulfo-NHS-SS-Biotin Kit (Pierce). Biotinylated proteins were isolated and resolved by SDS-PAGE on 6% gels followed by immunoblotting with an antibody to PTPμ (SK-18) as described (Mol Cancer Res 2008; 6: 1106-13).
(§1) The Furin Inhibitor I (Dec-RVKR-CMK, Calbiochem, Gibbstown, N.J.) was used at 50 μM for 17-20 hours. The γ-secretase inhibitors DAPT (Sigma-Aldrich) and L-685,458 (Sigma-Aldrich) were used at 2 μM and 5 μM, respectively, for 17-20 hours. The proteasome was inhibited with MG132 (Sigma-Aldrich) at 20 μM or epoxomicin (Calbiochem) at 5 μM for 4 hours. GM6001 (Calbiochem) was used at 50 μM as an MMP/ADAM inhibitor for 17-20 hours. Inhibitors were reconstituted in DMSO, which was used as a vehicle control. […] The PTPμ wedge peptide and a scrambled control peptide were synthesized to include a membrane-penetrant Tat-derived sequence at the C-terminus to promote cellular uptake. Peptides synthesized by Genemed Synthesis (San Antonio, Tex.) or GenScript (Piscataway, N.J.) were reconstituted in water and added to cells at a final concentration of 5 μM.
Cells were grown to confluence, treated with inhibitors, and lysed in 20 mM Tris-HCL, pH 7.5, 1% Triton X-100, 150 mM NaCl, 2 mM EDTA, 1 mM benzamidine, aprotinin (5 μg/ml), leupeptin (5 μg/ml) and pepstatin (1 μg/ml). Samples were sonicated and centrifuged at 10,000 rpm for 5 minutes. Immunoprecipitations from ˜400 μg total protein were performed using a PTPμ antibody (SK-18) and resolved by SDS-PAGE on 8% gels followed by immunoblotting with an antibody to PTPμ (SK-7).

[3] = system: LN-229 cells; assay: Scratch wound assay, LN-229 cells; details: for PTPμ fragment-mediated cell migration: LN-229 cells, DAPT 2 μM, GM6001 50 μM; for migration of LN-229 cells: peptide 5 μM, versus scrambled control, 24 hours
Procedure: Confluent monolayers of cells were scratched to induce a wound and analyzed by microscopy for the distance migrated by the leading edge of the wound at 0 and 24 hrs.
as §1

In the case of `CCN(CC)CCCC(C)Nc1nc(C)cc(Nc2ccc3nc(C)cc(N)c3c2)n1` (racemic) [Rac1 inhibitor], the “induction of lamellipodia in cells with reduced PTPμ expression” value ([1]; U-87 MG cells with PTPμ shRNA #1, inhibitor 100 μM, 6 hours) is reported as “prevented the induction of lamellipodia; also recorded: blocked the formation of PTPμ-induced lamellipodia”, the “migration induced by the loss of PTPμ (distance migrated by leading edge)” value ([1]; U-87 MG cells with PTPμ shRNA, inhibitor 50 μM, 24 hours) is reported as “significantly suppressed the migration; also recorded: significantly reduced the migration” and the “effect on morphology of control U-87 MG cells” value ([1]; control shRNA U-87 MG cells, inhibitor 100 μM, 6 hours) is reported as “no effect on morphology”.
With `C[C@H](NC(=O)Cc1cc(F)cc(F)c1)C(=O)N[C@H](C(=O)OC(C)(C)C)c1ccccc1` [DAPT] the “endogenous PTPμ PΔE and ICD fragments” value [2] was “stabilized a fragment that corresponds by molecular weight to a membrane-tethered truncated P-subunit termed PΔE”, the “PTPμ PΔE and ICD fragments” value [2] was “accumulation of PTPμ PΔE and ICD; also recorded: stabilized” and the “PTPμ fragment-mediated cell migration” value [3] was “increased migration”.
`CCCCCCCCCC(=O)N[C@@H](CCCN=C(N)N)C(=O)N[C@H](C(=O)N[C@@H](CCCCN)C(=O)N[C@@H](CCCN=C(N)N)C(=O)CCl)C(C)C` [Furin Inhibitor I, Dec-RVKR-CMK] (Decanoyl-RVKR-CH2Cl) was tested, and the “furin cleavage of PTPμ (full-length PTPμ at the cell surface, P-subunit formation)” value ([2]; listed as inhibitor of furin) was “prevented P-subunit formation” and the “furin cleavage of PTPμ (full-length PTPμ at the cell surface, P-subunit formation)” value ([2]; listed as inhibitor of furin activity) was “accumulation of full-length PTPμ (200 kDa) at the cell surface”.
In the case of `CNC(=O)[C@H](Cc1c[nH]c2ccccc12)NC(=O)[C@@H](CC(=O)NO)CC(C)C` [GM6001], the “endogenous PTPμ PΔE and ICD fragments” value [2] is reported as “limited the formation of PTPμ PΔE and ICD fragments” and the “PTPμ fragment-mediated cell migration” value [3] is reported as “decreased migration”.
With `CC(C)C[C@H](NC(=O)[C@H](Cc1ccccc1)C[C@@H](O)[C@H](Cc1ccccc1)NC(=O)OC(C)(C)C)C(=O)N[C@@H](Cc1ccccc1)C(N)=O` [L685,458, L-685,458] the “PTPμ PΔE and ICD fragments” value [2] was “accumulation of PTPμ PΔE and ICD; also recorded: stabilized”.
For `CC(C)C[C@@H](C=O)NC(=O)[C@H](CC(C)C)NC(=O)[C@H](CC(C)C)NC(=O)OCc1ccccc1` [MG132] (Cbz-Leu-Leu-Leu-aldehyde), the “endogenous PTPμ PΔE and ICD fragments” value [2] was “accumulation of both PΔE and a soluble fragment termed PTPμ intracellular domain (ICD); also recorded: stabilized” and the “PTPμ PΔE and ICD fragments” value [2] was “accumulation of PTPμ PΔE and ICD; also recorded: stabilized”.
For `CC[C@H](C)[C@H](NC(=O)[C@H]([C@@H](C)CC)N(C)C(C)=O)C(=O)N[C@H](C(=O)N[C@@H](CC(C)C)C(=O)[C@@]1(C)CO1)[C@@H](C)O` [epoxomicin], the “PTPμ PΔE and ICD fragments” value [2] was “Stabilization of PTPμ ICD; also recorded: stabilized”.
For “PTPμ wedge peptide: Peptide targeting the helix-loop-helix wedge domain of PTPμ with a membrane-penetrant Tat-derived sequence at the C-terminus (likely SEQ ID NO: 5) (DLLQHITQMKCAEGYGFKEEYESGRKKRRQRRRC)”, the “migration of LN-229 cells” value [3] was “significantly reduced migration” and the “migration of LN-229 cells” value ([3]; listed as PTPμ wedge inhibitor peptide) was “statistically significant difference in migration”.
